Data as given in publication PMC8153426, “EfgA is a conserved formaldehyde sensor that leads to bacterial growth arrest in response to elevated formaldehyde” (PLoS Biology, 2021).

Legend:
EfgA [1] = molecular target: T1, EfgA (Methylorubrum extorquens, UniProt P0DX96); experiment: microscale thermophoresis (Kd), confirmed by mITC; format: binding
T1 construct: recombinant EfgA with C-terminal 6X-His tag
T1 sequence (P0DX96 1-144): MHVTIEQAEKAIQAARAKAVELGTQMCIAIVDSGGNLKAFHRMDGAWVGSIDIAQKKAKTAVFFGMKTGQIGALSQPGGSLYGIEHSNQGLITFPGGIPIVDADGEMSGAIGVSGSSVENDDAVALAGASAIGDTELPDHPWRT
Text: microscale thermophoresis (Kd), confirmed by mITC on EfgA | MST was used to both independently confirm the interaction of EfgA with formaldehyde and permit calculation of its affinity

EfgA [2] = molecular target: T2, EfgA (Methylorubrum extorquens, UniProt P0DX96); experiment: X-ray crystal structure of formaldehyde-soaked crystals, […] Å; format: binding
T2 construct: N-terminal His-tagged EfgA, homotetramer

[3] = molecular target: the molecule itself; experiment: crystal structure; apo EfgA crystals (0.2 M potassium fluoride, 2.2 M ammonium sulfate, 10°C) and crystals with 16.6 mM formaldehyde (0.2 M KNO3, 2.2 M ammonium sulfate, 10°C); 4 molecules per asymmetric unit

C=O [formaldehyde]
Kd (EfgA [1]): 8.01 ± 3.5 mM

OCOCO [oxydimethanol]
X-ray crystal structure of formaldehyde-soaked crystals, 1.83 Å (EfgA [2]): In three EfgA monomers, new densities were modeled as oxydimethanol

B1: EfgA (Mext_4158, DUF336 protein) from Methylorubrum extorquens PA1, N-terminal His-tagged derivative (natural protein)
chain: T1 sequence (P0DX96 1-144)
notes: EfgA, product of Mext_4158 of Methylorubrum extorquens PA1; single-domain 144 amino acid protein with a DUF336 domain; Residue numbers S114, D121, K57 are said to correspond to the native EfgA protein; The simulations count 134 EfgA residues in the structure against 144 in the gene product; also called EfgA^WT; enhanced formaldehyde growth protein A; not shown: His6 (thrombin cleavable), …
stoichiometry N [3]: 4
